Experimental findings from paper PMC5078989, “Targeted inhibition of the COP9 signalosome for treatment of cancer” (Nature Communications, 2016) are described below.

Structures are written as SMILES. A value given as a limit tells only on which side of the number the result lay.

By IC50 is commonly meant the concentration that inhibits the measured activity by half. A low value points to greater potency in that assay.

Holding throughout (type): biochemical
One assay has as its target T1, human MMP14 (Homo sapiens, UniProt P50281).
T1 construct: human MMP14 (Uniprot P50281), amino acids 112–284; made in house; host or cells: E. coli
The assay is described as follows: Selectivity assay MMP14. The protocol: (§1) All biochemical assays were performed at room temperature in 384-well plates in a total volume of 25.25 μl per well. Test compounds were dissolved in 90% (v/v) DMSO/water. For the assays, 250 nl of compound solution was added per well, followed by addition of 12.5 μl protease solution. After 70 min of pre-incubation at room temperature, the reactions were started by addition of 12.5 μl substrate solution and followed either by measuring fluorescence intensity (rhodamine 110-based substrates) or by fluorescence lifetime (PT14-based substrates). The effect of compound on enzymatic activity was obtained from the linear part of the progress curves and determined after 1 h (t=60 min). The final compound concentrations ranged from 100 μM to 1 nM.
(§2) Matrix metalloproteinases. Human MMP1 (Uniprot P03956), amino acids 1–469, expressed in and purified from stable transfected C127 cells; human MMP2 (Uniprot P08253), amino acids 1–660, expressed in and purified from insect cells (baculovirus expression system); human MMP8 (Uniprot P22894), amino acids 100–262, expressed in and purified from E. coli; human MMP9 (Uniprot P14780), amino acids 1–707, expressed in and purified from stable transfected 293 cells; human MMP12 (Uniprot P39900), amino acids 101–268, expressed in and purified from E. coli; human MMP13 (Uniprot P45452), amino acids 103–274, expressed in and purified from E. coli; human MMP14 (Uniprot P50281), amino acids 112–284, expressed in and purified from E. coli; human ADAM17 (Uniprot P78536), amino acids 1–670, expressed in and purified from insect cells (baculovirus expression system); substrate: Ac-C(PT14)-[…]-NH2 purchased from Biosyntan (product number 8069); enzyme concentrations: 3 nM (MMP1), 1 nM (MMP2), 3 nM (MMP8), 0.1 nM (MMP9), 0.5 nM (MMP12), 0.13 nM (MMP13), 0.005 nM (MMP14), 30 nM (ADAM17); substrate concentration: 0.8 μM; assay buffer: 100 mM Tris, pH 7.4, 100 mM NaCl, 10 mM CaCl2, 10 μM ZnCl2, 0.075% (v/v) Brij35.

Another assay concerns the target T2, human MMP8 (Homo sapiens, UniProt P22894).
T2 construct: human MMP8 (Uniprot P22894), amino acids 100–262; made in house; host or cells: E. coli
The assay is described as follows: Selectivity assay MMP8. The protocol: as §1, §2

The next assay has as its target T3, human MMP2 (Homo sapiens, UniProt P08253).
T3 construct: human MMP2 (Uniprot P08253), amino acids 1–660; made in house; host or cells: insect cells (baculovirus)
T3 sequence (P08253 30-660): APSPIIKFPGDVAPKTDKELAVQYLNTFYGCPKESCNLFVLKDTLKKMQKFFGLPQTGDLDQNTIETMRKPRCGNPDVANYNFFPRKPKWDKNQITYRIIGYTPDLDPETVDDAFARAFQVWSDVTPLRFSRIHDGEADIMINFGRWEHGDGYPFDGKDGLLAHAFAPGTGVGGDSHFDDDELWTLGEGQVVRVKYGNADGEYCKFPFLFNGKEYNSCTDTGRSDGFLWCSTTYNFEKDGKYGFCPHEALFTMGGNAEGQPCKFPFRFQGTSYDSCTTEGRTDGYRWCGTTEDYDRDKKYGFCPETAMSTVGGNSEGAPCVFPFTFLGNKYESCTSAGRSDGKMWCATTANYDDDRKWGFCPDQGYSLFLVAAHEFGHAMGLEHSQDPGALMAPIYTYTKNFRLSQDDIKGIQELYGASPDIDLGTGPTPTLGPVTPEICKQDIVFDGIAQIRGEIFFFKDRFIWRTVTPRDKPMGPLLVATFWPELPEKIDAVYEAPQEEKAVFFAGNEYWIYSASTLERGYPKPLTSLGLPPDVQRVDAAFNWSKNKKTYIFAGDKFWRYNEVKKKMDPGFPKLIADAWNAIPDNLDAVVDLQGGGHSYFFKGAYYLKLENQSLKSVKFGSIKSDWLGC
The assay is described as follows: Selectivity assay MMP2. The protocol:
as §1, §2

T2 sequence (P22894 100-262): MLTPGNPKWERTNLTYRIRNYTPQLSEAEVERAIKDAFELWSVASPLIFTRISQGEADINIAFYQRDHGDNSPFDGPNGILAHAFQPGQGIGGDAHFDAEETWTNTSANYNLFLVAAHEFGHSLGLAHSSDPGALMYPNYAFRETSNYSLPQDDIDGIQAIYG

As for `COCc1ccccc1NCc1ccc([C@H]2[C@@H](O)CCCc3cncn32)c(-c2ccccc2Cl)c1` [CSN5i-2, (5S,6S)-5-(2′-chloro-5-(((2-(methoxymethyl)phenyl)amino)methyl)-[1,1′-biphenyl]-2-yl)-6,7,8,9-tetrahydro-5H-imidazo[1,5-a]azepin-6-ol], the IC50 amounted to 15.4 ± 0.02 µM on human MMP14, 59 ± 8 µM at human MMP8 and 89 ± 3 µM against human MMP2.

In the case of `CC(C)n1nc(C(F)F)cc1C(=O)Nc1ccc([C@H]2[C@@H](O)CCCc3cncn32)c(-c2ccccc2)c1` [CSN5i-3, 3-(Difluoromethyl)-N-(6-((5S,6S)-6-hydroxy-6,7,8,9-tetrahydro-5H-imidazo[1,5-a]azepin-5-yl)-[1,1′-biphenyl]-3-yl)-1-isopropyl-1H-pyrazole-5-carboxamide], the IC50 on human MMP14 was 4.6 ± 0.5 µM; on human MMP8, 14 ± 0.1 µM; against human MMP2 it was over 100 µM.

In the case of `COCc1ccccc1NCc1ccc([C@@H]2[C@H](O)CCCc3cncn32)c(-c2ccccc2Cl)c1` [CSN5i-2e, (5R,6R)-5-(2′-chloro-5-(((2-(methoxymethyl)phenyl)amino)methyl)-[1,1′-biphenyl]-2-yl)-6,7,8,9-tetrahydro-5H-imidazo[1,5-a]azepin-6-ol], the IC50 at human MMP14 was 11 ± 1 µM; against human MMP8, 48 ± 8 µM; at human MMP2, at least 90 µM.
